The results in this text go back to US20260138978A1, “POSITIVE ALLOSTERIC MODULATORS OF THE MUSCARINIC ACETYLCHOLINE RECEPTOR M1” (Vanderbilt University, priority 2022, published 2026).

A word on the Emax: it is the maximal effect, on the per cent scale that the assay sets. The term EC50 denotes the concentration at which the effect is half-maximal.

Some results are limits rather than exact numbers.

Experiment [1] has as its target T1, human mAChRM1 (Homo sapiens, UniProt P11229).
T1 construct: host or cells: CHO-K1
T1 sequence (P11229 1-460): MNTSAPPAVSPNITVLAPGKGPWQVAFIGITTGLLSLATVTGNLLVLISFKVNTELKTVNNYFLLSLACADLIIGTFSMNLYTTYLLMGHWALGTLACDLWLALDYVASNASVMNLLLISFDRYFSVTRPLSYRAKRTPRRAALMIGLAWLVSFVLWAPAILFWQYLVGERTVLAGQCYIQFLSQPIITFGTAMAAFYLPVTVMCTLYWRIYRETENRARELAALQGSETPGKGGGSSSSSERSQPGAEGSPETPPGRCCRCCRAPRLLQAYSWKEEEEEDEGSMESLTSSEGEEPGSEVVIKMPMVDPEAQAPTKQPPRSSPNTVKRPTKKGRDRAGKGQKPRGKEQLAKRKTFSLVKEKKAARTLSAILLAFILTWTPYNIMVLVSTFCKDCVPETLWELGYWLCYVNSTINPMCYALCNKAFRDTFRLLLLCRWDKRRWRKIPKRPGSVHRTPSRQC
Briefly: mAChR M1 cell-based functional assay (calcium mobilization), positive allosteric modulator activity: increase in the EC20 acetylcholine response. The following applies: for Emax: PAM mode; for EC50: increase in the EC20 acetylcholine response, read-out: PAM Activity Human M1 EC50. A digest of the protocol:
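Potentiation is scored as the rise in an EC20 acetylcholine-evoked calcium signal across 11-point (1:3) compound series, fitted with a four-parameter logistic equation to give EC50 and Emax. Read-out is Fluo-4 fluorescence ratio in hM1-transfected CHO-K1 cells, measured kinetically on FDSS.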
(A change in cytosolic calcium serves as a functional read-out for many receptors and channels.)

The target of experiment [2] is T1, human mAChRM1. As to the kind of experiment: mAChR M1 cell-based functional assay (calcium mobilization), agonist activity upon compound addition, Emax relative to acetylcholine maximum. The following applies: for EC50 / Agonist Activity Human M1 EC50: calcium mobilization upon compound addition; for Emax: relative to the maximum for acetylcholine. An outline of the steps:
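Emax is given as a percentage of the maximal acetylcholine response, from four-parameter curves of compound-evoked calcium mobilization. Human M1-transfected CHO-K1 cells carried Fluo-4 dye, and compound (11 concentrations, 1:3 steps) was applied at 4 s of a 300 s kinetic fluorescence recording.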

As to `Cn1cc2c(-c3ccc(CN4Cc5ncccc5C4=O)c(F)c3)ccc(C(C)(C)O)c2n1` [Compound 57, 6-(2-fluoro-4-(7-(2-hydroxypropan-2-yl)-2-methyl-2H-indazol-4-yl)benzyl)-6,7-dihydro-5H-pyrrolo[3,4-b]pyridin-5-one], at human mAChRM1 [1], the Emax was 69% and the half-maximal effective concentration (EC50) came to 181 nM. On human mAChRM1 [2], the EC50 was found to be 5070 nM and the Emax came out at 11%.

For the compound `Cc1cc(-c2ccc(C(C)(C)O)c3nn(C)cc23)ccc1CN1Cc2ncccc2C1=O` [Compound 58, 6-(4-(7-(2-hydroxypropan-2-yl)-2-methyl-2H-indazol-4-yl)-2-methylbenzyl)-6,7-dihydro-5H-pyrrolo[3,4-b]pyridin-5-one], at human mAChRM1 [1], the maximal effect (Emax) amounted to 71% and the EC50 amounted to 278 nM. For the same compound, at human mAChRM1 [2], the concentration for a half-maximal effect (EC50) is no less than 10000 nM and the maximal effect (Emax) turned out to be 23%.

For `Cn1cc2c(-c3ccc(CN4Cc5ncccc5C4=O)cc3)ccc(C(C)(C)O)c2n1` [Compound 59, 6-(4-(7-(2-hydroxypropan-2-yl)-2-methyl-2H-indazol-4-yl)benzyl)-6,7-dihydro-5H-pyrrolo[3,4-b]pyridin-5-one], at human mAChRM1 [1], the Emax stood at 67% and the half-maximal effective concentration (EC50) turned out to be 396 nM. In addition, on human mAChRM1 [2], the EC50 is no less than 10000 nM and the Emax was found to be 16%.

As for `COc1cc(-c2ccc(C(C)(C)O)c3nn(C)cc23)cc(F)c1CN1Cc2ncccc2C1=O` [Compound 60, 6-(2-fluoro-4-(7-(2-hydroxypropan-2-yl)-2-methyl-2H-indazol-4-yl)-6-methoxybenzyl)-6,7-dihydro-5H-pyrrolo[3,4-b]pyridin-5-one], on human mAChRM1 [1], the Emax turned out to be 68% and the concentration giving a half-maximal response (EC50) came out at 163 nM. For the same compound, the “Agonist Activity Human M1 EC50” value at human mAChRM1 [2] is “inactive”.

Take `Cn1cc2c(-c3cc(F)c(CN4Cc5ncccc5C4=O)c(Cl)c3)ccc(C(C)(C)O)c2n1` [Compound 61, 6-(2-chloro-6-fluoro-4-(7-(2-hydroxypropan-2-yl)-2-methyl-2H-indazol-4-yl)benzyl)-6,7-dihydro-5H-pyrrolo[3,4-b]pyridin-5-one]: the values for the maximal response (Emax) on human mAChRM1 [1] and on human mAChRM1 [2] were 70% and 18%, respectively. Besides, the EC50 on human mAChRM1 [1] was determined as 103 nM; at human mAChRM1 [2], 4610 nM.

As for `Cn1cc2c(-c3cc(F)c(CN4Cc5ncccc5C4=O)cc3F)ccc(C(C)(C)O)c2n1` [Compound 62, 6-(2,5-difluoro-4-(7-(2-hydroxypropan-2-yl)-2-methyl-2H-indazol-4-yl)benzyl)-6,7-dihydro-5H-pyrrolo[3,4-b]pyridin-5-one], on human mAChRM1 [1], the Emax amounted to 73% and the concentration for a half-maximal effect (EC50) amounted to 180 nM. Besides, at human mAChRM1 [2], the EC50 is no less than 10000 nM and the Emax was 30%.

Regarding `Cn1cc2c(-c3ccc(CN4Cc5ncccc5C4=O)c(F)c3F)ccc(C(C)(C)O)c2n1` [Compound 63, 6-(2,3-difluoro-4-(7-(2-hydroxypropan-2-yl)-2-methyl-2H-indazol-4-yl)benzyl)-6,7-dihydro-5H-pyrrolo[3,4-b]pyridin-5-one], on human mAChRM1 [1], the maximal effect (Emax) came out at 64% and the concentration giving a half-maximal response (EC50) was 445 nM. Besides, the “Agonist Activity Human M1 EC50” value on human mAChRM1 [2] was “inactive”.

On to `Cn1cc2c(-c3cc(Cl)c(CN4Cc5ncccc5C4=O)c(Cl)c3)ccc(C(C)(C)O)c2n1` [Compound 64, 6-(2,6-dichloro-4-(7-(2-hydroxypropan-2-yl)-2-methyl-2H-indazol-4-yl)benzyl)-6,7-dihydro-5H-pyrrolo[3,4-b]pyridin-5-one], for which, at human mAChRM1 [1], the Emax is 63% and the EC50 is 145 nM. In addition, on human mAChRM1 [2], the concentration for a half-maximal effect (EC50) was found to be 6330 nM and the maximal response (Emax) was 15%.

On to `Cc1cc(-c2ccc(C(C)(C)O)c3nn(C)cc23)cc(Cl)c1CN1Cc2ncccc2C1=O` [Compound 65, 6-(2-chloro-4-(7-(2-hydroxypropan-2-yl)-2-methyl-2H-indazol-4-yl)-6-methylbenzyl)-6,7-dihydro-5H-pyrrolo[3,4-b]pyridin-5-one], for which the figures for the maximal response (Emax) at human mAChRM1 [1] and on human mAChRM1 [2] were 65% and 28%, respectively. Besides, the values for the half-maximal effective concentration (EC50) on human mAChRM1 [1] and at human mAChRM1 [2] were 135 nM and no less than 10000 nM, respectively.

On to `Cn1cc2c(-c3cc(F)c(CN4Cc5ncccc5C4=O)c(C4CCCC4)c3)ccc(C(C)(C)O)c2n1` [Compound 66, 6-(2-cyclopentyl-6-fluoro-4-(7-(2-hydroxypropan-2-yl)-2-methyl-2H-indazol-4-yl)benzyl)-6,7-dihydro-5H-pyrrolo[3,4-b]pyridin-5-one], for which, on human mAChRM1 [1], the maximal effect (Emax) stood at 62% and the EC50 came to 1910 nM. Besides, the “Agonist Activity Human M1 EC50” value on human mAChRM1 [2] is “inactive”.

For `Cn1cc2c(-c3cc(Cl)c(CN4Cc5ncccc5C4=O)c(C4CC4)c3)ccc(C(C)(C)O)c2n1` [Compound 67, 6-(2-chloro-6-cyclopropyl-4-(7-(2-hydroxypropan-2-yl)-2-methyl-2H-indazol-4-yl)benzyl)-6,7-dihydro-5H-pyrrolo[3,4-b]pyridin-5-one], at human mAChRM1 [1], the maximal effect (Emax) was determined as 62% and the EC50 was 147 nM. For the same compound, on human mAChRM1 [2], the 50% effective concentration (EC50) is 6100 nM and the maximum response (Emax) amounted to 32%.

As for `Cn1nc(C(C)(C)O)cc1-c1cc(F)c(CN2Cc3ncccc3C2=O)c(C2CC2)c1` [Compound 68, 6-(2-cyclopropyl-6-fluoro-4-(3-(2-hydroxypropan-2-yl)-1-methyl-1H-pyrazol-5-yl)benzyl)-6,7-dihydro-5H-pyrrolo[3,4-b]pyridin-5-one], at human mAChRM1 [1], the Emax is 49% and the EC50 is no less than 10000 nM. For the same compound, the “Agonist Activity Human M1 EC50” value at human mAChRM1 [2] was “inactive”.

As to `Cc1cc(-c2cc(C(C)(C)O)nn2C)ccc1CN1Cc2ncccc2C1=O` [Compound 69, 6-(4-(3-(2-hydroxypropan-2-yl)-1-methyl-1H-pyrazol-5-yl)-2-methylbenzyl)-6,7-dihydro-5H-pyrrolo[3,4-b]pyridin-5-one], at human mAChRM1 [1], the Emax turned out to be 36% and the EC50 is no less than 10000 nM. The “Agonist Activity Human M1 EC50” value at human mAChRM1 [2] was “inactive”.

For `CCC(O)(CC)c1ccc(-c2ccc(CN3Cc4ncccc4C3=O)c(F)c2)c2cn(C)nc12` [Compound 70, 6-(2-fluoro-4-(7-(3-hydroxypentan-3-yl)-2-methyl-2H-indazol-4-yl)benzyl)-6,7-dihydro-5H-pyrrolo[3,4-b]pyridin-5-one], on human mAChRM1 [1], the Emax was 78% and the half-maximal effective concentration (EC50) is 2210 nM. Further, the “Agonist Activity Human M1 EC50” value on human mAChRM1 [2] was “inactive”.

For the compound `CC(C)(O)c1ccc(-c2cc(F)c(CN3Cc4ncccc4C3=O)c(F)c2)c2ccccc12` [Compound 71, 6-(2,6-difluoro-4-(4-(2-hydroxypropan-2-yl)naphthalen-1-yl)benzyl)-6,7-dihydro-5H-pyrrolo[3,4-b]pyridin-5-one], at human mAChRM1 [1], the maximum response (Emax) is 64% and the EC50 was no less than 10000 nM. In addition, the “Agonist Activity Human M1 EC50” value on human mAChRM1 [2] is “inactive”.

For the compound `Cc1cc(-c2ccc(C(C)(C)O)c3ccccc23)cc(F)c1CN1Cc2ncccc2C1=O` [Compound 72, 6-(2-fluoro-4-(4-(2-hydroxypropan-2-yl)naphthalen-1-yl)-6-methylbenzyl)-6,7-dihydro-5H-pyrrolo[3,4-b]pyridin-5-one], on human mAChRM1 [1], the Emax turned out to be 60% and the EC50 was 6960 nM. Moreover, on human mAChRM1 [2], the “Agonist Activity Human M1 EC50” value is “inactive”.

Take `CC(C)(O)c1ccc(-c2ccc(CN3Cc4ncccc4C3=O)c(F)c2)c2ccccc12` [Compound 73, 6-(2-fluoro-4-(4-(2-hydroxypropan-2-yl)naphthalen-1-yl)benzyl)-6,7-dihydro-5H-pyrrolo[3,4-b]pyridin-5-one]: at human mAChRM1 [1], the Emax was 58% and the EC50 was no less than 10000 nM. In addition, at human mAChRM1 [2], the “Agonist Activity Human M1 EC50” value was “inactive”.
